Data reported in patent US4278671A, “7-[2-(2-Aminothiazol-4-yl)-2-(syn)-methoxyiminoacetamido] cephalosporins” (Takeda Chemical Industries, Ltd., priority 1976, dated 1981).
Read-outs that look alike come from different tables or passages of the source.

Legend:
E. coli = experiment: protective effect on infected mice (intraperitoneal infection with E. coli); assay type: in vivo; details: Escherichia coli, 168 h, male mice ICR/SLC, 7 days observation
Description: *Test animals: male mice (ICR/SLC) 5 mice per group per single
Infection: intraperitoneally with E. coli
Observation period: 7 days

E. coli NIHJ = experiment: minimal inhibitory concentration against E. coli NIHJ; assay type: cell-based; details: Escherichia coli
[1] = tested on: Proteus mirabilis GN 4359; experiment: minimal inhibitory concentration against P. mirabilis GN 4359; assay type: cell-based; details: GN4359
[2] = tested on: Proteus morganii IFO 3168; experiment: minimal inhibitory concentration against P. morganii IFO 3168; assay type: cell-based; details: Morganella morganii, IFO3168
[3] = tested on: Proteus vulgaris IFO 3988; experiment: minimal inhibitory concentration against P. vulgaris IFO 3988; assay type: cell-based; details: IFO3988
Proteus rettgeri GN 4733 = experiment: minimal inhibitory concentration against P. rettgeri GN 4733; assay type: cell-based; details: Providencia rettgeri, GN4733
Serratia TN 0024 = experiment: minimal inhibitory concentration against Serratia TN 0024; assay type: cell-based
[4] = tested on: Serratia marcescens IFO 12648; experiment: minimal inhibitory concentration against Serr. marcescens IFO 12648; assay type: cell-based; details: IFO12648
E. coli T-7 = experiment: minimal inhibitory concentration against E. coli T-7; assay type: cell-based; details: Escherichia coli, T7
[5] = tested on: Enterobacter cloacae IFO 12937; experiment: minimal inhibitory concentration against Ent. cloacae IFO 12937; assay type: cell-based
[6] = tested on: Citrobacter freundii GN 99; experiment: minimal inhibitory concentration against Cit. freundii GN 99; assay type: cell-based; details: GN99
E. coli 0-111 = experiment: minimal inhibitory concentration against E. coli 0-111; assay type: cell-based, Escherichia coli; details: 0111
P. rettgeri 8(TN0336) = experiment: minimal inhibitory concentration against P. rettgeri 8 (TN0336); assay type: cell-based, Proteus rettgeri; details: Providencia rettgeri
[7] = tested on: Klebsiella pneumoniae GN 3835; experiment: minimal inhibitory concentration against K. pneumoniae GN 3835; assay type: cell-based; details: GN3835
P. vulgaris GN 4413 = experiment: minimal inhibitory concentration against P. vulgaris GN 4413; assay type: cell-based; details: Proteus vulgaris, GN4413
[8] = tested on: Citrobacter freundii GN 1706; experiment: minimal inhibitory concentration against Cit. freundii GN 1706; assay type: cell-based; details: GN1706
Klebsiella pneumoniae DT = experiment: minimal inhibitory concentration against K. pneumoniae DT; assay type: cell-based
[9] = tested on: Acinetobacter anitratus TN-1140; experiment: minimal inhibitory concentration against Acinetobacter anitratus TN-1140; assay type: cell-based; details: Acinetobacter calcoaceticus, TN1140
Ps. aeruginosa GN3407 = experiment: minimal inhibitory concentration against Ps. aeruginosa GN3407; assay type: cell-based; details: Pseudomonas aeruginosa
Ps. aeruginosa P2 = experiment: minimal inhibitory concentration against Ps. aeruginosa P2; assay type: cell-based; details: Pseudomonas aeruginosa
Ps. aeruginosa PM 3 = experiment: minimal inhibitory concentration against Ps. aeruginosa PM 3; assay type: cell-based; details: Pseudomonas aeruginosa, PM3
Ps. aeruginosa Pd 1 = experiment: minimal inhibitory concentration against Ps. aeruginosa Pd 1; assay type: cell-based; details: Pseudomonas aeruginosa, PD1
Ent. cloacae TN1282 = experiment: minimal inhibitory concentration against Ent. cloacae TN1282; assay type: cell-based; details: Enterobacter cloacae
[10] = Proteus mirabilis, P. mirabilis GN 4359, read-out: minimal inhibitory concentration
[11] = P. morganii IFO 3168, read-out: minimal inhibitory concentration
[12] = Proteus vulgaris, P. vulgaris IFO 3988, read-out: minimal inhibitory concentration
[13] = P. rettgeri GN 4733, read-out: minimal inhibitory concentration
[14] = TN0024, Serratia TN 0024, read-out: minimal inhibitory concentration
[15] = Serratia marcescens, Serr. marcescens IFO 12648, read-out: minimal inhibitory concentration
[16] = Citrobacter freundii, Cit. freundii GN 99, read-out: minimal inhibitory concentration
[17] = Escherichia coli, E. coli 0-111, read-out: minimal inhibitory concentration
[18] = P. rettgeri 8(TN0336), read-out: minimal inhibitory concentration
[19] = Klebsiella pneumoniae, K. pneumoniae GN 3835, read-out: minimal inhibitory concentration
[20] = Citrobacter freundii, Cit. freundii GN 1706, read-out: minimal inhibitory concentration
[21] = Klebsiella pneumoniae, K. pneumoniae DT, read-out: minimal inhibitory concentration

## CO/N=C(\C(=O)NC1C(=O)N2C(C(=O)OCOC(=O)C(C)(C)C)=C(CSc3nnnn3C)CSC12)c1csc(N)n1 (centres unmarked) [Example 15]
E. coli; oral
  ED50: 0.11 mg/kg

## CO/N=C(\C(=O)NC1C(=O)N2C(C(=O)O)=C(CSc3nnc(C)s3)CSC12)c1csc(N)n1 (stereo not drawn) [(a), Sodium 7-[2-(2-aminothiazol-4-yl)-2-(syn)-methoxyiminoacetamido]-3-(2-methyl-1,3,4-thiadiazol-5-yl)thiomethyl-3-cephem-4-carboxylate]
E. coli NIHJ
  MIC: 0.2 µg/mL
[1]; [10]
  MIC: 0.2 µg/mL
[2]; [11]
  MIC: 0.1 µg/mL
[3]; [12]
  MIC: 0.1 µg/mL
Proteus rettgeri GN 4733; [13]
  MIC: 0.39 µg/mL
Serratia TN 0024; [14]
  MIC: 0.78 µg/mL
[4]; [15]
  MIC: 0.78 µg/mL
E. coli T-7
  MIC: 1.56 µg/mL
[5]; Enterobacter cloacae, Ent. cloacae IFO12937, read-out: minimum inhibitory concentration
  MIC: 3.13 µg/mL
[6]; [16]
  MIC: 0.2 µg/mL
E. coli 0-111; [17]
  MIC: 0.1 µg/mL
P. rettgeri 8(TN0336); [18]
  MIC: ≤ 0.012 µg/mL
[7]; [19]
  MIC: 0.39 µg/mL
P. vulgaris GN 4413
  MIC: 1.56 µg/mL
[8]; [20]
  MIC: 0.78 µg/mL
Klebsiella pneumoniae DT; [21]
  MIC: 0.05 µg/mL

## CO/N=C(\C(=O)NC1C(=O)N2C(C(=O)O)=C(COC(N)=O)CSC12)c1csc(N)n1 (stereo not drawn) [Example 1, sodium 7-[2-(2-aminothiazol-4-yl)-2-(syn)-methoxyiminoacetamido]-3-carbamoyloxymethyl-3-cephem-4-carboxylate]
E. coli NIHJ
  MIC: 0.1 µg/mL
[1]; [10]
  MIC: ≤ 0.02 µg/mL
[2]; [11]
  MIC: 0.39 µg/mL
[3]; [12]
  MIC: ≤ 0.02 µg/mL
Proteus rettgeri GN 4733; [13]
  MIC: 0.05 µg/mL
Serratia TN 0024; [14]
  MIC: 0.2 µg/mL
[4]; [15]
  MIC: 1.56 µg/mL
[9]
  MIC: 6.25 µg/mL
E. coli T-7
  MIC: 0.39 µg/mL
[6]; [16]
  MIC: 0.2 µg/mL
E. coli 0-111; [17]
  MIC: 0.024 µg/mL
Ps. aeruginosa GN3407
  MIC: > 100 µg/mL
Ps. aeruginosa P2
  MIC: 25 µg/mL
P. rettgeri 8(TN0336); [18]
  MIC: ≤ 0.012 µg/mL
[7]; [19]
  MIC: 0.05 µg/mL
Ps. aeruginosa PM 3
  MIC: 3.13 µg/mL
P. vulgaris GN 4413
  MIC: 1.56 µg/mL
Ps. aeruginosa Pd 1
  MIC: 50 µg/mL
[8]; [20]
  MIC: 0.39 µg/mL
Klebsiella pneumoniae DT; [21]
  MIC: < 0.012 µg/mL
E. coli; subcutaneous (SC)
  ED50: 0.015 mg/kg
Ent. cloacae TN1282
  MIC: 6.25 µg/mL

## CO/N=C(/C(=O)NC1C(=O)N2C(C(=O)O)=C(COC(N)=O)CSC12)c1csc(N)n1 (stereo not drawn) [compound 27, sodium 7-[(2-aminothiazol-4-yl)-α-(anti)-methoxyimino]acetamido-3-carbamoyloxymethyl-3-cephem-4-carboxylate, reference compound]
[1]; Proteus mirabilis GN 4359, read-out: MIC
  MIC: 0.78 µg/mL
[2]; Proteus morganii IFO 3168, read-out: MIC
  MIC: 0.78 µg/mL
[3]; Proteus vulgaris IFO 3988, read-out: MIC
  MIC: 0.39 µg/mL
Proteus rettgeri GN 4733; Proteus rettgeri GN 4733, read-out: MIC
  MIC: 0.78 µg/mL
Serratia TN 0024; Serratia TN0024, read-out: MIC
  MIC: 6.25 µg/mL
[4]; Serratia marcescens IFO 12648, read-out: MIC
  MIC: 12.5 µg/mL
[5]; IFO12937, Enterobacter cloacae IFO 12937, read-out: MIC
  MIC: 25 µg/mL
[6]; Citrobacter freundii GN 99, read-out: MIC
  MIC: 1.56 µg/mL
E. coli 0-111; Escherichia coli 0-111, read-out: MIC
  MIC: 0.78 µg/mL
P. rettgeri 8(TN0336); Proteus rettgeri 8 TNO 336, read-out: MIC
  MIC: < 0.2 µg/mL
[7]; Klebsiella pneumoniae GN 3835, read-out: MIC
  MIC: 6.25 µg/mL
[8]; Citrobacter freundii GN 1706, read-out: MIC
  MIC: 3.13 µg/mL
Klebsiella pneumoniae DT; Klebsiella pneumoniae DT, read-out: MIC
  MIC: 1.56 µg/mL

## CO/N=C(\C(=O)NC1C(=O)N2C(C(=O)O)=C(C)CSC12)c1csc(N)n1 (stereo not drawn) [Example 5, sodium 7-[2-(2-aminothiazol-4-yl)-2-(syn)-methoxyiminoacetamido]desacetoxycephalosporanate]
E. coli NIHJ
  MIC: 0.78 µg/mL
[1]; [10]
  MIC: 0.1 µg/mL
[2]; [11]
  MIC: 12.5 µg/mL
[3]; [12]
  MIC: 0.2 µg/mL
Proteus rettgeri GN 4733; [13]
  MIC: 0.1 µg/mL
Serratia TN 0024; [14]
  MIC: 1.56 µg/mL
[4]; [15]
  MIC: 12.5 µg/mL
[9]
  MIC: 12.5 µg/mL
E. coli T-7
  MIC: 6.25 µg/mL
[6]; [16]
  MIC: 3.13 µg/mL
E. coli 0-111; [17]
  MIC: 0.39 µg/mL
Ps. aeruginosa GN3407
  MIC: > 100 µg/mL
Ps. aeruginosa P2
  MIC: > 100 µg/mL
P. rettgeri 8(TN0336); [18]
  MIC: ≤ 0.012 µg/mL
[7]; [19]
  MIC: 0.2 µg/mL
Ps. aeruginosa PM 3
  MIC: 25 µg/mL
P. vulgaris GN 4413
  MIC: 1.56 µg/mL
Ps. aeruginosa Pd 1
  MIC: > 100 µg/mL
[8]; [20]
  MIC: 6.25 µg/mL
Klebsiella pneumoniae DT; [21]
  MIC: 0.2 µg/mL
E. coli; subcutaneous (SC)
  ED50: 0.111 mg/kg
Ent. cloacae TN1282
  MIC: 50 µg/mL
